Source: patent publication US20240299361A1, “VETERINARY TRANSDERMAL GEL COMPRISING ONDANSETRON, AND RELATED METHODS” (Verté Therapeutics, LLC, priority 2023, published 2024)
Where a name gives a salt, the structure may show the parent alone.

Test: Visual solubility screen for Ondansetron HCl in solvents/excipients
Assay type: physicochemical
Protocol: The purpose of this study was to evaluate the solubility of Ondansetron HCl in an array of solvents/excipients to develop a stable topical formulation for transdermal application in cats and dogs. In this screen, evaluation of solubility was determined by visual examination only.
The following procedure was used to determine solubility of the API (Ondansetron HCl): • a. Label 20 mL USP Type I scintillation vials appropriately for each solvent/solvent blend that will be tested. Although API is light sensitive, clear glass vials will be used, as the study is a visual assessment only. • b. Place a stir bar in each vial. Weigh the empty vial containing stir bar and cap with inert liner. Record the tare weight. • c. Weigh approximately 3.0 g of each solvent into the designated vial. • d. Weigh approximately 30.0 mg of the API into each vial. • e. Place all closed vials on a stir plate and allow mixing for at least 30 minutes at ambient conditions. • f. Visually inspect to see if the API has completely dissolved. Record the stir time and observations. • g. If the API has dissolved, repeat steps d to f until saturation solubility is achieved or up to 10% w/w. • h. Record additional API aliquots added to the mixture. Continue stirring solutions overnight at ambient temperature to confirm solubility is maintained. • i. Record the final weight of the vial, cap, stir bar, and sample to calculate the total amount of active and/or solvent added at room temperature. • j. Heat (if applicable) all the vials in which API is not soluble to 65° C. for 1 hour and check the solubility. Allow them to cool to room temperature and check for any precipitation in the vials in which API was soluble when heated. Perform microscopy as deemed necessary. • k. Confirm the pH of buffer solutions after addition and solubilization (if applicable) of the API. • l. Record final observations and take pictures as needed to document the observations.
Upon addition of Ondansetron HCl to each solvent, vials were subjected to stirring at room temperature at 400 RPM.
For the secondary solvent solubility screen, solvents which required heating as primary systems were blended at a 1:1 ratio with other solubilizers being screened.

Cc1nccn1CC1CCc2c(c3ccccc3n2C)C1=O (stereo not shown) [Ondansetron HCl]
Solubility (visual) (in Citrate buffer USP (pH 3.0), without heating): at least 1 % w/w
Solubility achieved (visual) (in DMSO): ≥ 10%
Solubility (visual) (in DMSO, without heating): at least 1 % w/w
Solubility (visual) (in PEG 400, without heating): at least 1 % w/w
Solubility (visual) (in absolute alcohol, without heating): at least 1 % w/w
Solubility achieved (visual) (in benzyl alcohol): ≥ 10%
Solubility (visual) (in benzyl alcohol, without heating): at least 1 % w/w
Solubility (visual) (in diethylene glycol monoethyl ether, without heating): at least 1 % w/w
Solubility achieved (visual) (in propylene glycol): ≥ 10%
Solubility (visual) (in propylene glycol, without heating): at least 1 % w/w
